Reference: patent publication US9296725B2, “Heterocyclyl pyrimidine analogues as TYK2 inhibitors” (Cellzome Limited, priority 2012, dated 2016)

Experiments:
[1] = biological target: T1, JAK2 (Homo sapiens, UniProt O60674); experiment: Kinobeads assay, JAK2 (competition binding in mixed Molt4/Ramos cell lysate, dot blot detection); details: read-out: JAK2 Band (Kinobeads assay potency, IC50)
T1 construct: endogenous in cells; host or cells: Molt4 (ATCC CRL-1582) and Ramos (ATCC CRL-1596), mixed lysate 1:2
Procedure, shortened: (§1)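 JAK2 and TYK2 retained on Kinobeads (immobilized aminopyrido-pyrimidine ligand) from 1:2 Molt4:Ramos lysate (10 mg/mL) were quantified by antibody dot blot (Odyssey infrared) after 3 h cold incubation with compound. Nine-step 1:3 dilution series; IC50 calculated from curves.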

[2] = biological target: T2, TYK2 (Homo sapiens, UniProt P29597); experiment: Kinobeads assay, TYK2 (competition binding in mixed Molt4/Ramos cell lysate, dot blot detection); details: Kinobeads assay, Molt4/Ramos lysate; read-out: TYK2 Band (Kinobeads assay potency, IC50)
T2 construct: endogenous in cells; host or cells: Molt4 (ATCC CRL-1582) and Ramos (ATCC CRL-1596), mixed lysate 1:2
Procedure, shortened: as §1

T2 sequence (P29597 whole entry): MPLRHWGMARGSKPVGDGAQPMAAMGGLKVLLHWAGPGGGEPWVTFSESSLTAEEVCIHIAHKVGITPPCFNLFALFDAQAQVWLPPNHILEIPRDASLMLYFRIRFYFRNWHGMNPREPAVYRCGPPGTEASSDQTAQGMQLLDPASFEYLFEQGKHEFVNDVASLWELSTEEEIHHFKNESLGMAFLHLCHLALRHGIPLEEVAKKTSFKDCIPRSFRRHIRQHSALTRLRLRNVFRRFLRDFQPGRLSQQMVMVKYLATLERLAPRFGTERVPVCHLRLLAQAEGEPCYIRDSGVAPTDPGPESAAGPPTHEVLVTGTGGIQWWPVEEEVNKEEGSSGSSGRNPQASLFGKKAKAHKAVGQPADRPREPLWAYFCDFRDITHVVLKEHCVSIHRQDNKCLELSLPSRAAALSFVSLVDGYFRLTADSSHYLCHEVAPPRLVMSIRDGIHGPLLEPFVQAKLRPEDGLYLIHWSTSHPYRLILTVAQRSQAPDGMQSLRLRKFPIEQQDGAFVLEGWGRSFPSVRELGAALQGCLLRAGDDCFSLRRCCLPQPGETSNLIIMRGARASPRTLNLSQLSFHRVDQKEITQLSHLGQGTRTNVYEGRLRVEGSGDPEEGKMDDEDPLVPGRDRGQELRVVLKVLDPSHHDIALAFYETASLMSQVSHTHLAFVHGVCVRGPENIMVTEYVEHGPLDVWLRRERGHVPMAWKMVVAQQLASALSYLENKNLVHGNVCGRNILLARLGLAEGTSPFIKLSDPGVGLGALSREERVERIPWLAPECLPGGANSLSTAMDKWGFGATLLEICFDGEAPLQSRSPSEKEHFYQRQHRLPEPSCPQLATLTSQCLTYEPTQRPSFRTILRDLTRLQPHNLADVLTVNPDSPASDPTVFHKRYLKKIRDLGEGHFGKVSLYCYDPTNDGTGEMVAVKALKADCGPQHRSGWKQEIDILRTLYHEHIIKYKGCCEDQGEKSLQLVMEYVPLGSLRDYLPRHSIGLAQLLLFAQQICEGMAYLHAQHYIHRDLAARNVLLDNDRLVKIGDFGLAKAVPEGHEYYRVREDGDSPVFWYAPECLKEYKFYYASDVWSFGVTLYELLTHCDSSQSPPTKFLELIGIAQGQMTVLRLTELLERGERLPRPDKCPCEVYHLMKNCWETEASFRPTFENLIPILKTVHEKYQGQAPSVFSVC
T1 sequence (O60674 whole entry): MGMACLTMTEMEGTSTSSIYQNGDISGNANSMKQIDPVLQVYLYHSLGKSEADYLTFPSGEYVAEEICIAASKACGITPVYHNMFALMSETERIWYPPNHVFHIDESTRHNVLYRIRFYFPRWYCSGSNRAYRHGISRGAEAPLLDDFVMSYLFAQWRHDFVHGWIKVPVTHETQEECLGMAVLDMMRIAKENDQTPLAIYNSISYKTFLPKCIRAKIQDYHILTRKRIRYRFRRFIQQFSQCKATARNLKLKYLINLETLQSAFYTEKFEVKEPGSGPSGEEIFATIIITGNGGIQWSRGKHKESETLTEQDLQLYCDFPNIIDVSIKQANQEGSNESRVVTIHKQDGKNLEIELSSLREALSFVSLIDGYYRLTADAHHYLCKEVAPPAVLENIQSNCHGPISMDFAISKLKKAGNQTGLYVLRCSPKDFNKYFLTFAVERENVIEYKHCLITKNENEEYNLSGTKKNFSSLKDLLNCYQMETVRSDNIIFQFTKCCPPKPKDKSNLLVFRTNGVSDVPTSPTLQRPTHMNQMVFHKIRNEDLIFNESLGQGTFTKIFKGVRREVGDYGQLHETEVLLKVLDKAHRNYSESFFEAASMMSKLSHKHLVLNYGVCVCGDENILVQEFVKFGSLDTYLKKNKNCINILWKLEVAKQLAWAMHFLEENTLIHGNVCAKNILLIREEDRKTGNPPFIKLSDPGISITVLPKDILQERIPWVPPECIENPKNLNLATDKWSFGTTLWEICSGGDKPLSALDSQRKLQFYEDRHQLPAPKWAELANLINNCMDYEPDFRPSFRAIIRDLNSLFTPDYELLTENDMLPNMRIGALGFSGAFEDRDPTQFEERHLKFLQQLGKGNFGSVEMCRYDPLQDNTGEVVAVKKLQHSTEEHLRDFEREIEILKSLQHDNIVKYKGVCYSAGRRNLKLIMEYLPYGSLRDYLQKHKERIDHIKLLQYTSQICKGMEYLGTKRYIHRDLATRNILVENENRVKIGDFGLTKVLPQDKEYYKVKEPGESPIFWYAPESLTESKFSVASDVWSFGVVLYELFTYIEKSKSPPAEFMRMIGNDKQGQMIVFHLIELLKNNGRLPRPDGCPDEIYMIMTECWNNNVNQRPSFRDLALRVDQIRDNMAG

| IC50 [1] | IC50 [2] | Compound |
| --- | --- | --- |
| 1000 to 10000 nM | ≤ 10 nM | Cc1cnc(Nc2cnn(CC(=O)N3CCOC(C)(C)C3)c2)nc1NCc1c(F)cc(F)cc1F [Example I-34] |
| 100 to 1000 nM | 10 to 100 nM | OCCn1cc(Nc2ncc(Cl)c(NCc3cc(C(F)(F)F)ccc3F)n2)cn1 [Example I-281] |
